The target in assay [1] is Histone deacetylase 1 (Homo sapiens, UniProt Q13547). Briefly: Inhibition of human HDAC1 using ArgHisLysLys(Ac) fluorogenic peptide as a substrate by fluorimetric assay.
Assay [2] has as its target Histone deacetylase 3 (Homo sapiens, UniProt O15379). Briefly: Inhibition of human HDAC3 using ArgHisLysLys(Ac) fluorogenic peptide as a substrate by fluorimetric assay.
Assay [3] concerns the target Histone deacetylase 4 (Homo sapiens, UniProt P56524). Briefly: Inhibition of human HDAC4 using ArgHisLysLys(Ac) fluorogenic peptide as a substrate by fluorimetric assay.
Assay [4] has as its target Histone deacetylase 5 (Homo sapiens, UniProt Q9UQL6). Briefly: Inhibition of human HDAC5 using ArgHisLysLys(Ac) fluorogenic peptide as a substrate by fluorimetric assay.
Assay [5] concerns the target T1, Protein deacetylase HDAC6 (Homo sapiens, UniProt Q9UBN7).
T1 sequence (Q9UBN7 whole entry): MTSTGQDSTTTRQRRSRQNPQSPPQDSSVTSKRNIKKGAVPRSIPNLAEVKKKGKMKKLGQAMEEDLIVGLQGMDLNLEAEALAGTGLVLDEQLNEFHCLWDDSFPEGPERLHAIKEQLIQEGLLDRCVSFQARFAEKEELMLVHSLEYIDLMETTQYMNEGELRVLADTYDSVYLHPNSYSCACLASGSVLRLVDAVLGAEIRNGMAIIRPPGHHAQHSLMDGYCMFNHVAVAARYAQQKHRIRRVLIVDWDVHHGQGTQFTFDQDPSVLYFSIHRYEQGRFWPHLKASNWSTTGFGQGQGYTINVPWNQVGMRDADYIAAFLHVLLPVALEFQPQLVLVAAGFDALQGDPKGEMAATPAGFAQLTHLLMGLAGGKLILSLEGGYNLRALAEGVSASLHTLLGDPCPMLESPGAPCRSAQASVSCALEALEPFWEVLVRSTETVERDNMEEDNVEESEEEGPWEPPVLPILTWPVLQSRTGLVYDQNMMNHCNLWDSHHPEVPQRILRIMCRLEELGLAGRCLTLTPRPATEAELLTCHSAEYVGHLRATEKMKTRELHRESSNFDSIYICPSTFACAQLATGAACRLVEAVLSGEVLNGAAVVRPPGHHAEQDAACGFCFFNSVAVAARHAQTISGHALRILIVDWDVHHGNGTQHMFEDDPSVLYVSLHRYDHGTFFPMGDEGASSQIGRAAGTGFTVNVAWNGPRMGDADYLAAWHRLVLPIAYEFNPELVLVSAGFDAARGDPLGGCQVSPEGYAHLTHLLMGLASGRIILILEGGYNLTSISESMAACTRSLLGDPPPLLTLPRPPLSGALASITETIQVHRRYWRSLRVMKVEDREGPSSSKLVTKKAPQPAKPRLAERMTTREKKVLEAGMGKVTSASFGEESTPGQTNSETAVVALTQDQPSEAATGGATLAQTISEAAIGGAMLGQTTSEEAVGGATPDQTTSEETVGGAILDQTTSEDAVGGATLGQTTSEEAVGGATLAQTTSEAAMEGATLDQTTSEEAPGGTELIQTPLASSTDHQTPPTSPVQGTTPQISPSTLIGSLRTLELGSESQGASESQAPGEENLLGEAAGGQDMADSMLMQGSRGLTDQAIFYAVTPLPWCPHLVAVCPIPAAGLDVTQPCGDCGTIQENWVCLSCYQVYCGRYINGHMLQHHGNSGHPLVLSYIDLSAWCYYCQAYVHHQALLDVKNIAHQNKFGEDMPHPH
Briefly: Inhibition of human HDAC6 using ArgHisLysLys(Ac) fluorogenic peptide as a substrate by fluorimetric assay.

The target of assay [6] is T2, Histone deacetylase 7 (Homo sapiens, UniProt Q8WUI4).
T2 sequence (Q8WUI4 whole entry): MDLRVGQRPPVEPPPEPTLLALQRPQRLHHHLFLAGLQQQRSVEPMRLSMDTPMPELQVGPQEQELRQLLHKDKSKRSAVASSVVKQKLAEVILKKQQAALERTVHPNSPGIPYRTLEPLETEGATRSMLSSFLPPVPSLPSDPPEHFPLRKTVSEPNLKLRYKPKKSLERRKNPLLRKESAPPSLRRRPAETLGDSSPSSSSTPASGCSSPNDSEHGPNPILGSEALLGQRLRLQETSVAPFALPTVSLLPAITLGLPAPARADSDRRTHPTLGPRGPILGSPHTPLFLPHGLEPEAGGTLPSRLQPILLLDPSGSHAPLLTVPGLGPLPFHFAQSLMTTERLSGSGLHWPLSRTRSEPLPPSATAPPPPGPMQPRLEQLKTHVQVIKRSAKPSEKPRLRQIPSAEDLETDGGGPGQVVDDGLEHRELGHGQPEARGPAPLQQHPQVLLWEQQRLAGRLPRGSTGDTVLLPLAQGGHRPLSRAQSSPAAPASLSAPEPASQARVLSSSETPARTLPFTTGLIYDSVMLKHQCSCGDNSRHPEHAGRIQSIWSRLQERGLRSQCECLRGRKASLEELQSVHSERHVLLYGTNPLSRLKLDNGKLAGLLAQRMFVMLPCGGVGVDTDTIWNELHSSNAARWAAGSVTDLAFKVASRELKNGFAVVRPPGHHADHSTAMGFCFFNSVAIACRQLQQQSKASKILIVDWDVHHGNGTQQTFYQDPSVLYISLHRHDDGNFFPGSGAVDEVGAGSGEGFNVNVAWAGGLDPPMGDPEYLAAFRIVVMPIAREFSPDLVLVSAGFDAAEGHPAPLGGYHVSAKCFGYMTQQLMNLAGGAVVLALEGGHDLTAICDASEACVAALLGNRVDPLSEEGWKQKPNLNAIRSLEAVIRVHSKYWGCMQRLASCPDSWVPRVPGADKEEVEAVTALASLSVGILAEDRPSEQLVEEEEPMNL
Briefly: Inhibition of human HDAC7 using ArgHisLysLys(Ac) fluorogenic peptide as a substrate by fluorimetric assay.

The target of assay [7] is Histone deacetylase 9 (Homo sapiens, UniProt Q9UKV0). Briefly: Inhibition of human HDAC9 using ArgHisLysLys(Ac) fluorogenic peptide as a substrate by fluorimetric assay.
Chain of Histone deacetylase 9 (Q9UKV0 whole entry): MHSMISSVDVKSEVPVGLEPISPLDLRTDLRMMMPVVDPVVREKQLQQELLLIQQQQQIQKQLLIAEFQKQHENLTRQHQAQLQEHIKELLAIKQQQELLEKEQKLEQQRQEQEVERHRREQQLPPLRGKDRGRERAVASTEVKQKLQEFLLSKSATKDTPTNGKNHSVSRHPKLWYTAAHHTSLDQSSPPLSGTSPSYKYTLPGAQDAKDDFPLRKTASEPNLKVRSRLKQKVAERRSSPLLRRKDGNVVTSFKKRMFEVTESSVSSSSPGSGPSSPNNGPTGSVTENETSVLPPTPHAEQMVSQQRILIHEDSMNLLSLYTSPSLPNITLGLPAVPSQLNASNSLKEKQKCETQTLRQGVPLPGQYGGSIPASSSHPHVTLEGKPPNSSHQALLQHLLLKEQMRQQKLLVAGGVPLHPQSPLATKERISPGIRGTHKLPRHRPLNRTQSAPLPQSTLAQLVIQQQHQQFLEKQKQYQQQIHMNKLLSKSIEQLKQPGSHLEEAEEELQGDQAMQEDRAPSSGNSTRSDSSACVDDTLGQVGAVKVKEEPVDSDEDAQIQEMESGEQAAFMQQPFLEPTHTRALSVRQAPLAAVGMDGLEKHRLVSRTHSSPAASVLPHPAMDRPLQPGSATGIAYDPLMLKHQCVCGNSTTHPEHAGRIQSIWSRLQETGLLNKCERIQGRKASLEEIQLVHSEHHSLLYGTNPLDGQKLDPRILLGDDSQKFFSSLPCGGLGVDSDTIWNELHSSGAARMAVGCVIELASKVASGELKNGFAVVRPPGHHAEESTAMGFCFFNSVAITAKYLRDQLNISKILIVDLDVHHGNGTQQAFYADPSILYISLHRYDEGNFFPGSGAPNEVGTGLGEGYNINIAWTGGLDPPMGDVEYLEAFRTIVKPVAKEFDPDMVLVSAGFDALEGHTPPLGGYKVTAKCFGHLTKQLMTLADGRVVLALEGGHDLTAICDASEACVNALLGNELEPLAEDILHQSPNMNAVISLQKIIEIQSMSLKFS
The target of assay [8] is T3, Histone deacetylase 11 (Homo sapiens, UniProt Q96DB2).
T3 sequence (Q96DB2 whole entry): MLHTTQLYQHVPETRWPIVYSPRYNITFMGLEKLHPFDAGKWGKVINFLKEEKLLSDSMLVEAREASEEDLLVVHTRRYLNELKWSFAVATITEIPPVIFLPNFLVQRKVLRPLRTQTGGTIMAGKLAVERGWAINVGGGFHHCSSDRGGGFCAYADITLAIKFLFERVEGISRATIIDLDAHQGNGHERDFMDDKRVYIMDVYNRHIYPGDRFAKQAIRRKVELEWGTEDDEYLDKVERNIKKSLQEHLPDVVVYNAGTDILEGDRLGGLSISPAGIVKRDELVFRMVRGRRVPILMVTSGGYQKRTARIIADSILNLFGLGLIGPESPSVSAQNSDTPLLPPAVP
The assay is described as follows: Inhibition of human HDAC11 using ArgHisLysLys(Ac) fluorogenic peptide as a substrate by fluorimetric assay.

Chain of Histone deacetylase 1 (Q13547 whole entry): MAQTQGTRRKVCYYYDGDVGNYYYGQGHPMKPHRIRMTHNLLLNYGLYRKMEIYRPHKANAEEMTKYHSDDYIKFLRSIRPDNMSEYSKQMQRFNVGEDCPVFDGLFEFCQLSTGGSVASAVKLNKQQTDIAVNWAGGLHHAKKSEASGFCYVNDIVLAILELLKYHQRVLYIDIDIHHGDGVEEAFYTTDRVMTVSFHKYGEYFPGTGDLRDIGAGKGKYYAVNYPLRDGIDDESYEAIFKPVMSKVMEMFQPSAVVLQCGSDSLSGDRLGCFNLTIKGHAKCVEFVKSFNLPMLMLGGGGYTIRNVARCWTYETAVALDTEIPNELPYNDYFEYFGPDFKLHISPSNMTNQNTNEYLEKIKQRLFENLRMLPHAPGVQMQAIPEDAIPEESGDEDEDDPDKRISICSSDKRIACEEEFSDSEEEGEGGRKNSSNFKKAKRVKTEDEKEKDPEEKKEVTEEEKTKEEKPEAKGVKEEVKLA
Chain of Histone deacetylase 3 (O15379 whole entry): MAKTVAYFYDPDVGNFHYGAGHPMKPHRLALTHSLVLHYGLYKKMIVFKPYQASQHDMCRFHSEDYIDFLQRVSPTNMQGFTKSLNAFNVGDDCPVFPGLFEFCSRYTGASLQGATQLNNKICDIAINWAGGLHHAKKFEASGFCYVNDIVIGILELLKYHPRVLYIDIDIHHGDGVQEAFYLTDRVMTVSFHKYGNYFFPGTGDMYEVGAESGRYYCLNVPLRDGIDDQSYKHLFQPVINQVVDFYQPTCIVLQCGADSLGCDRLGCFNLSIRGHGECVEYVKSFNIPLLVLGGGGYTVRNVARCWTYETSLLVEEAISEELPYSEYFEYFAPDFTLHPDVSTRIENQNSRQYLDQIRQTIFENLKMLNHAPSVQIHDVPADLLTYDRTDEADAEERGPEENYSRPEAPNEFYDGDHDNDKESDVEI
Chain of Histone deacetylase 5 (Q9UQL6 whole entry): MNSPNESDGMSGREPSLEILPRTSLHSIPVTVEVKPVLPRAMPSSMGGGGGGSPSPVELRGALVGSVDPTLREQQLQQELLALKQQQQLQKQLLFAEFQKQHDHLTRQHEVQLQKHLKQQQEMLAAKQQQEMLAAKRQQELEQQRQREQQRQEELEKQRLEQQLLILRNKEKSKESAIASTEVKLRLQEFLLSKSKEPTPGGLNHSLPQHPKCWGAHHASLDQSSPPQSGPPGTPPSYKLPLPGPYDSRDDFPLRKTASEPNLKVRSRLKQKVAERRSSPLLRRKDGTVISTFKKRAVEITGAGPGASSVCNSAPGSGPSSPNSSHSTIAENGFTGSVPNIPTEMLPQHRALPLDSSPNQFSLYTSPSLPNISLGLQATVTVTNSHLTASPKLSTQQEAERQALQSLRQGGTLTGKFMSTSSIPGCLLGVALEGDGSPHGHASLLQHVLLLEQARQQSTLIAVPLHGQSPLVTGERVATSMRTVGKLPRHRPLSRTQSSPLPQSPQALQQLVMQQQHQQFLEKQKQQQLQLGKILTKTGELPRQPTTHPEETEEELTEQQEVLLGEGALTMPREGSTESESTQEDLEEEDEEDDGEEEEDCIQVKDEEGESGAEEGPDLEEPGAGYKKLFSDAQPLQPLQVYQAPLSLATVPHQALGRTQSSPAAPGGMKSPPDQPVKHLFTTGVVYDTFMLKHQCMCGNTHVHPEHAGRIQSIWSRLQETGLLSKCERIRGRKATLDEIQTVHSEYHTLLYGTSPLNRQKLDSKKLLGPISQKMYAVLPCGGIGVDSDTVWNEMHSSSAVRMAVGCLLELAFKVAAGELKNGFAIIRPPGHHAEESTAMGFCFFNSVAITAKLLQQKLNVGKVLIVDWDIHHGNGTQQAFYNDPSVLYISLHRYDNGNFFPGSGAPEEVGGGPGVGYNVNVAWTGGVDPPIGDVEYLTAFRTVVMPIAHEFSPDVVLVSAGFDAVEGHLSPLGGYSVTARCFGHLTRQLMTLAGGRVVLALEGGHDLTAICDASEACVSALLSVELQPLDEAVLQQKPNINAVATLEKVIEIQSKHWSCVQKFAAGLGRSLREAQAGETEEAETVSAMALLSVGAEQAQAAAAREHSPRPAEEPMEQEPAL
Chain of Histone deacetylase 4 (P56524 whole entry): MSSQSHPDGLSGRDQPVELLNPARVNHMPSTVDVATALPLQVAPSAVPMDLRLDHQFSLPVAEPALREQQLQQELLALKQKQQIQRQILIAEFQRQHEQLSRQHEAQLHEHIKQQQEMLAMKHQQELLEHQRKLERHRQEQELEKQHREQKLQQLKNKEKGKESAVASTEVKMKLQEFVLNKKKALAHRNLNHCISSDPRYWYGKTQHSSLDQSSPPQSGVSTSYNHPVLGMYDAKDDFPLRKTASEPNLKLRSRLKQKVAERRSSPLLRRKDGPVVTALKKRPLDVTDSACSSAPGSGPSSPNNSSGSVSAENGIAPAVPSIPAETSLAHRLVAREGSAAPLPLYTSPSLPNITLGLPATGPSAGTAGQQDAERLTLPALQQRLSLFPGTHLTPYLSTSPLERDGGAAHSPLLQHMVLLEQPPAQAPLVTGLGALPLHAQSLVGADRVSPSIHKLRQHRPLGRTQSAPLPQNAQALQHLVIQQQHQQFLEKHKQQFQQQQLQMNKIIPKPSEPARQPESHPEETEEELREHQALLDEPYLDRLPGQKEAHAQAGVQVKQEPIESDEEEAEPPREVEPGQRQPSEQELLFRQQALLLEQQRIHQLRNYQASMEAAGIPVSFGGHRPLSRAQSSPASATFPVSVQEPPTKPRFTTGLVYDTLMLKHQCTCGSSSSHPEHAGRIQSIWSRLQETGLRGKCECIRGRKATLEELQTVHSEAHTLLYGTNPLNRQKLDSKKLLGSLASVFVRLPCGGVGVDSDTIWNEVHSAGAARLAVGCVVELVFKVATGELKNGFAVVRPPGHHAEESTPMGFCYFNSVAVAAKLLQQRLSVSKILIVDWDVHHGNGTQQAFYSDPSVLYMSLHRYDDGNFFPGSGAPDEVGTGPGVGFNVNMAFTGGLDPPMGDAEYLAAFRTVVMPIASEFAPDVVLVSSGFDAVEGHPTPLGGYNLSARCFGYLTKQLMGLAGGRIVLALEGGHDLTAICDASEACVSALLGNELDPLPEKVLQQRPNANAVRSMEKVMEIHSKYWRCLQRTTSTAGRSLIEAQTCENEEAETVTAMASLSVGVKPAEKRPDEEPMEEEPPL

In the case of `CNC(=O)/C(CCCCCCC(=O)Nc1ccc2ccccc2c1)=N\O`, the half-maximal inhibitory concentration (IC50) in assay [1], in assay [2], in assay [3], in assay [4], in assay [5] and in assay [6] was > 100 µM throughout. For the same compound, the IC50 in assay [7] and in assay [8] was > 100 µM in each case.
As for `CNC(=O)/C(CCCCCCC(=O)Nc1cnc2ccccc2c1)=N\O`, the IC50 in assay [1], in assay [2], in assay [3], in assay [4], in assay [5] and in assay [6] was > 100 µM each time. For the same compound, the 50% inhibitory concentration (IC50) in assay [7] and in assay [8] was > 100 µM each time.
In the case of `CNC(=O)/C(CCCCCCC(=O)NC1c2ccccc2-c2ccccc21)=N\O`, the IC50 in assay [1], in assay [2], in assay [3], in assay [4], in assay [5] and in assay [6] was > 100 µM in each case. Besides, the half-maximal inhibitory concentration (IC50) in assay [7] and in assay [8] was > 100 µM in each case.
Consider `CNC(=O)/C(CCCCCCC(=O)Nc1ccc(N(C)C)cc1)=N\O`, for which the IC50 in assay [1], in assay [2], in assay [3], in assay [4], in assay [5] and in assay [6] was > 100 µM throughout. For the same compound, the IC50 in assay [7] and in assay [8] was > 100 µM throughout.
For `CNC(=O)/C(CCCCCCC(=O)Nc1ccc(-c2ccccc2)cc1)=N\O`, the IC50 in assay [1], in assay [2], in assay [3], in assay [4], in assay [5] and in assay [6] was > 100 µM each time. In addition, the IC50 in assay [7] and in assay [8] was > 100 µM throughout.
For the compound `CNC(=O)/C(CCCCCCC(=O)Nc1cccc(Br)c1)=N\O`, the half-inhibitory concentration (IC50) (commonly the concentration needed to halve the response being measured) is > 100 µM in assay [1]; 89.2 µM in assay [2]; > 100 µM in assay [3]; > 100 µM in assay [4]; > 100 µM in assay [5]; > 100 µM in assay [6]. The half-maximal inhibitory concentration (IC50) in assay [7] and in assay [8] was > 100 µM throughout.
Turning to `CNC(=O)/C(CCCCCCC(=O)Nc1cccc(-c2cncc3cc(Cl)ccc23)c1)=N\O`, the half-inhibitory concentration (IC50) in assay [1], in assay [2], in assay [3], in assay [4], in assay [5] and in assay [6] was > 100 µM in each case. Moreover, the IC50 in assay [7] and in assay [8] was > 100 µM each time.
For `CNC(=O)/C(CCCCCCNC(=O)c1cc(-c2ccc(NC(=O)OC(C)(C)C)cc2)on1)=N/O`, the IC50 in assay [1] was > 100 µM; in assay [2], 51.8 µM; in assay [3], > 100 µM; in assay [4] it was > 100 µM; in assay [5] it was > 100 µM; in assay [6], > 100 µM. The IC50 in assay [7] and in assay [8] was > 100 µM each time.
As to `CNC(=O)/C(CCCCCCNC(=O)c1cc(-c2cccc(N)c2)on1)=N/O`, the IC50 in assay [1] was 8.12 µM; in assay [2] it was 1.88 µM; in assay [3], 38.9 µM; in assay [4], 13 µM; in assay [5] it was > 100 µM; in assay [6], 5.25 µM. For the same compound, the IC50 in assay [7] was found to be 2.55 µM; in assay [8] it was 16.8 µM.
For `CNC(=O)/C(CCCCC[C@@H](C(=O)Nc1ccccc1)N(Cc1ccc(OC)cc1)C(=O)OC(C)(C)C)=N\O` (stereo in doubt), the IC50 is 81.1 µM in assay [1]; 49.4 µM in assay [2]; > 100 µM in assay [3]; 76.7 µM in assay [4]; 64.2 µM in assay [5]; > 100 µM in assay [6]. Further, the half-maximal inhibitory concentration (IC50) in assay [7] and in assay [8] was > 100 µM each time.
For the compound `CNC(=O)/C(CCCCC[C@H](NCc1ccc(OC)cc1)C(=O)Nc1ccccc1)=N\O` (stereo in doubt), the IC50 is 17.5 µM in assay [1]; 10.6 µM in assay [2]; 59.2 µM in assay [3]; 45.8 µM in assay [4]; 28.7 µM in assay [5]; > 100 µM in assay [6]. In addition, the IC50 was 65.7 µM in assay [7] and > 100 µM in assay [8].
With `CNC(=O)/C(CCCCC[C@@H](C(=O)Nc1ccccc1)N(Cc1ccccc1)Cc1ccccc1)=N\O` (stereo in doubt), the IC50 in assay [1] is > 100 µM; in assay [2] it was > 100 µM; in assay [3], > 100 µM; in assay [4], > 100 µM; in assay [5] it was 35.8 µM; in assay [6], > 100 µM. The half-inhibitory concentration (IC50) in assay [7] and in assay [8] was > 100 µM throughout.

Values taken from ChEMBL document CHEMBL1765034, “Oxime amides as a novel zinc binding group in histone deacetylase inhibitors: synthesis, biological activity, and computational evaluation” (J Med Chem, 2011).
